Literature values as cited in patent US20230071557A1, “STABLE PHARMACEUTICAL COMPOSITIONS OF ROPINIROLE” (ORION CORPORATION, priority 2020, published 2023).
Counter-ions that a name gives are not always drawn.

System: dogs
Settings: aqueous eye drop solution comprising 10 or 40 mg/ml of ropinirole hydrochloride

CCCN(CCC)CCc1cccc2c1CC(=O)N2 [ropinirole hydrochloride]
Vomiting (emesis) in dogs: produced vomiting rapidly and consistently
